Reference: patent US10131652B2, “Pyrimidinyloxy benzene derivatives as herbicides” (E. I. DU PONT DE NEMOURS AND COMPANY, priority 2014, dated 2018)

Columns and labels:
Assay type in all cases: in vivo
[1] = test system: Italian ryegrass (Lolium multiflorum); assay: Test B pre-/postemergence plant response
In short: (§1)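 Visual injury rating, 0 (no effect) to 100 (complete control), vs untreated controls after ~10 d greenhouse. Pre: directed soil spray after planting in loam/sand. Post: plants 2–10 cm, 1–2 leaf stage. Compound in non-phytotoxic solvent plus surfactant.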

kochia (Kochia scoparia) = assay: Test B pre-/postemergence plant response
In short: as §1

[2] = test system: ragweed (common ragweed, Ambrosia elatior); assay: Test B pre-/postemergence plant response
In short: as §1

[3] = test system: Italian ryegrass (Lolium multiflorum); assay: Test D pre-/postemergence plant response
In short: (§2)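 Seeds sown in loam–sand blend got preemergence sprays of test chemicals in a non-phytotoxic solvent with surfactant; postemergence sprays went on plants at 1- to 4-leaf stage (2 to 18 cm) in peat/vermiculite medium. After 13 to 15 days in greenhouse, visual injury versus controls scored 0 (no effect) to 100 (complete control).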

[4] = test system: barnyardgrass (Echinochloa crus-galli); assay: Test D pre-/postemergence plant response
In short: as §2

[5] = test system: blackgrass (Alopecurus myosuroides); assay: Test D pre-/postemergence plant response
In short: as §2

corn (Zea mays) = assay: Test D pre-/postemergence plant response
In short: as §2

[6] = test system: giant foxtail (Setaria faberii); assay: Test D pre-/postemergence plant response
In short: as §2

[7] = test system: lambsquarters (Chenopodium album); assay: Test D pre-/postemergence plant response
In short: as §2

[8] = test system: large (Lg) crabgrass (Digitaria sanguinalis); assay: Test D pre-/postemergence plant response
In short: as §2

[9] = test system: morningglory (Ipomoea coccinea); assay: Test D pre-/postemergence plant response
In short: as §2

[10] = test system: pigweed (Amaranthus retroflexus); assay: Test D pre-/postemergence plant response
In short: as §2

soybean (Glycine max) = assay: Test D pre-/postemergence plant response
In short: as §2

[11] = test system: velvetleaf (Abutilon theophrasti); assay: Test D pre-/postemergence plant response
In short: as §2

[12] = test system: waterhemp (common waterhemp, Amaranthus rudis); assay: Test D pre-/postemergence plant response
In short: as §2

[13] = 125 g ai/ha, postemergence, 0 to 100 scale, 0 no effect, 100 complete control
[14] = Postemergence, 500 g ai/ha, 0 to 100 scale (0 no effect, 100 complete control)
[15] = Preemergence, 125 g ai/ha, 0 to 100 scale (0 no effect, 100 complete control)
[16] = Preemergence, 500 g ai/ha, 0 to 100 scale where 0 is no effect and 100 is complete control
[17] = Postemergence, 31 g ai/ha, scale 0 to 100 (0 no effect, 100 complete control)
[18] = Postemergence, 62 g ai/ha, scale 0 to 100, 0 no effect, 100 complete control
[19] = Postemergence, 125 g ai/ha, scale 0 to 100, 0 no effect, 100 complete control
[20] = Preemergence, 16 g ai/ha, scale 0 to 100 (0 no effect, 100 complete control)
[21] = Preemergence, 31 g ai/ha, scale 0 to 100 (0 no effect, 100 complete control)
[22] = Preemergence, 62 g ai/ha, scale 0 to 100 (0 no effect, 100 complete control)

## N#Cc1cccc(Oc2ncc(Cl)cn2)c1-c1cc(C(F)F)on1 [Compound 180]
[1]; [13]
  Plant response rating, Ryegrass, Italian: 100
[1]; [14]
  Plant response rating, Ryegrass, Italian: 100
[1]; [15]
  Ryegrass, Italian plant response rating: 20
[1]; [16]
  Plant response rating, Ryegrass, Italian: 70
Kochia (Kochia scoparia); [13]
  Plant response rating, Kochia: 100
Kochia (Kochia scoparia); [14]
  Plant response rating, Kochia: 100
Kochia (Kochia scoparia); [15]
  Kochia plant response rating: 100
Kochia (Kochia scoparia); [16]
  Plant response rating, Kochia: 100
[2]; [13]
  Plant response rating, Ragweed: 50
[2]; [14]
  Plant response rating, Ragweed: 70
[2]; [15]
  Ragweed plant response rating: 50
[2]; [16]
  Plant response rating, Ragweed: 70
[3]; Postemergence, 16 g ai/ha
  Plant response rating (scale 0 to 100), Ryegrass, Italian: 0
[3]; [17]
  Ryegrass, Italian plant response rating: 0
[3]; [18]
  Ryegrass, Italian plant response rating: 5
[3]; [19]
  Plant response rating, Ryegrass, Italian: 20
[3]; Preemergence, 125 g ai/ha
  Plant response rating (scale 0 to 100), Ryegrass, Italian: 65
[3]; [20]
  Plant response rating, Ryegrass, Italian: 0
[3]; [21]
  Plant response rating, Ryegrass, Italian: 0
[3]; [22]
  Plant response rating, Ryegrass, Italian: 50
[4]; Postemergence, 16 g ai/ha
  Plant response rating (scale 0 to 100), Barnyardgrass: 0
[4]; [17]
  Barnyardgrass plant response rating: 0
[4]; [18]
  Plant response rating, Barnyardgrass: 5
[4]; [19]
  Plant response rating, Barnyardgrass: 5
[4]; Preemergence, 125 g ai/ha
  Plant response rating (scale 0 to 100), Barnyardgrass: 80
[4]; [20]
  Plant response rating, Barnyardgrass: 0
[4]; [21]
  Plant response rating, Barnyardgrass: 0
[4]; [22]
  Plant response rating, Barnyardgrass: 35
[5]; Postemergence, 16 g ai/ha
  Plant response rating (scale 0 to 100), Blackgrass: 0
[5]; [17]
  Blackgrass plant response rating: 0
[5]; [18]
  Plant response rating, Blackgrass: 5
[5]; [19]
  Plant response rating, Blackgrass: 5
[5]; Preemergence, 125 g ai/ha
  Plant response rating (scale 0 to 100), Blackgrass: 70
[5]; [20]
  Plant response rating, Blackgrass: 0
[5]; [21]
  Plant response rating, Blackgrass: 0
[5]; [22]
  Plant response rating, Blackgrass: 60
Corn (Zea mays); Postemergence, 16 g ai/ha
  Plant response rating (scale 0 to 100), Corn: 5
Corn (Zea mays); [17]
  Corn plant response rating: 5
Corn (Zea mays); [18]
  Plant response rating, Corn: 10
Corn (Zea mays); [19]
  Plant response rating, Corn: 15
Corn (Zea mays); Preemergence, 125 g ai/ha
  Plant response rating (scale 0 to 100), Corn: 30
Corn (Zea mays); [20]
  Plant response rating, Corn: 0
Corn (Zea mays); [21]
  Plant response rating, Corn: 0
Corn (Zea mays); [22]
  Plant response rating, Corn: 5
[6]; Postemergence, 16 g ai/ha
  Plant response rating (scale 0 to 100), Foxtail, Giant: 60
[6]; [17]
  Foxtail, Giant plant response rating: 50
[6]; [18]
  Plant response rating, Foxtail, Giant: 30
[6]; [19]
  Plant response rating, Foxtail, Giant: 45
[6]; Preemergence, 125 g ai/ha
  Plant response rating (scale 0 to 100), Foxtail, Giant: 100
[6]; [20]
  Plant response rating, Foxtail, Giant: 5
[6]; [21]
  Plant response rating, Foxtail, Giant: 60
[6]; [22]
  Plant response rating, Foxtail, Giant: 85
[7]; Postemergence, 16 g ai/ha
  Plant response rating (scale 0 to 100), Lambsquarters: 70
[7]; [17]
  Lambsquarters plant response rating: 80
[7]; [18]
  Lambsquarters plant response rating: 98
[7]; [19]
  Plant response rating, Lambsquarters: 98
[7]; Preemergence, 125 g ai/ha
  Plant response rating (scale 0 to 100), Lambsquarters: 90
[7]; [20]
  Plant response rating, Lambsquarters: 95
[7]; [21]
  Plant response rating, Lambsquarters: 100
[7]; [22]
  Plant response rating, Lambsquarters: 100
[8]; Postemergence, 16 g ai/ha
  Plant response rating (scale 0 to 100), Crabgrass, Large: 5
[8]; [17]
  Crabgrass, Large plant response rating: 5
[8]; [18]
  Plant response rating, Crabgrass, Large: 5
[8]; [19]
  Plant response rating, Crabgrass, Large: 5
[8]; Preemergence, 125 g ai/ha
  Plant response rating (scale 0 to 100), Crabgrass, Large: 100
[8]; [20]
  Plant response rating, Crabgrass, Large: 30
[8]; [21]
  Plant response rating, Crabgrass, Large: 75
[8]; [22]
  Plant response rating, Crabgrass, Large: 100
[9]; Postemergence, 16 g ai/ha
  Plant response rating (scale 0 to 100), Morningglory: 40
[9]; [17]
  Morningglory plant response rating: 55
[9]; [18]
  Morningglory plant response rating: 90
[9]; [19]
  Plant response rating, Morningglory: 90
[9]; Preemergence, 125 g ai/ha
  Plant response rating (scale 0 to 100), Morningglory: 100
[9]; [20]
  Plant response rating, Morningglory: 0
[9]; [21]
  Plant response rating, Morningglory: 0
[9]; [22]
  Plant response rating, Morningglory: 5
[10]; Postemergence, 16 g ai/ha
  Plant response rating (scale 0 to 100), Pigweed: 70
[10]; [17]
  Pigweed plant response rating: 75
[10]; [18]
  Pigweed plant response rating: 75
[10]; [19]
  Plant response rating, Pigweed: 98
[10]; Preemergence, 125 g ai/ha
  Plant response rating (scale 0 to 100), Pigweed: 100
[10]; [20]
  Plant response rating, Pigweed: 80
[10]; [21]
  Plant response rating, Pigweed: 98
[10]; [22]
  Plant response rating, Pigweed: 100
Soybean (Glycine max); Postemergence, 16 g ai/ha
  Plant response rating (scale 0 to 100), Soybean: 45
Soybean (Glycine max); [17]
  Soybean plant response rating: 60
Soybean (Glycine max); [18]
  Soybean plant response rating: 70
Soybean (Glycine max); [19]
  Plant response rating, Soybean: 85
Soybean (Glycine max); Preemergence, 125 g ai/ha
  Plant response rating (scale 0 to 100), Soybean: 80
Soybean (Glycine max); [20]
  Plant response rating, Soybean: 5
Soybean (Glycine max); [21]
  Plant response rating, Soybean: 25
Soybean (Glycine max); [22]
  Plant response rating, Soybean: 60
[11]; Postemergence, 16 g ai/ha
  Plant response rating (scale 0 to 100), Velvetleaf: 45
[11]; [17]
  Velvetleaf plant response rating: 40
[11]; [18]
  Velvetleaf plant response rating: 35
[11]; [19]
  Plant response rating, Velvetleaf: 55
[11]; Preemergence, 125 g ai/ha
  Plant response rating (scale 0 to 100), Velvetleaf: 100
[11]; [20]
  Plant response rating, Velvetleaf: 75
[11]; [21]
  Plant response rating, Velvetleaf: 85
[11]; [22]
  Plant response rating, Velvetleaf: 90
[12]; Postemergence, 16 g ai/ha
  Plant response rating (scale 0 to 100), Waterhemp: 40
[12]; [17]
  Waterhemp plant response rating: 75
[12]; [18]
  Waterhemp plant response rating: 90
[12]; [19]
  Plant response rating, Waterhemp: 98
[12]; Preemergence, 125 g ai/ha
  Plant response rating (scale 0 to 100), Waterhemp: 100
[12]; [20]
  Plant response rating, Waterhemp: 40
[12]; [21]
  Plant response rating, Waterhemp: 95
[12]; [22]
  Plant response rating, Waterhemp: 95
